Among the data in ChEMBL document CHEMBL4392887, “17- nor-Cephalotane-Type Diterpenoids from Cephalotaxus fortunei” (J Nat Prod, 2019) are inhibition and IC50 values, retold here.

The subject of experiment [1] is A549. As to the kind of experiment: Cytotoxicity in human A549 cells assessed as inhibition of cell viability at 50 uM incubated for 72 hrs by CCK-8 assay. To be noted: A549, 72 h. The class given is functional. (Tetrazolium assays rely on reduction of a dye to a coloured formazan, in cell work by metabolically active cells.)
Experiment [2] has as its system HL-60. As to the kind of experiment: Cytotoxicity in human HL60 cells assessed as inhibition of cell viability at 50 uM incubated for 72 hrs by CCK-8 assay. The format is functional. Particulars: HL-60, 72 h.
For experiment [3], the system named is A549. The experiment can be described thus: Cytotoxicity in human A549 cells assessed as inhibition of cell viability incubated for 72 hrs by CCK-8 assay. The class given is functional, cell-based. Particulars: for IC50: A549, 72 h.
For experiment [4], the system named is HL-60. As to the kind of experiment: Cytotoxicity in human HL60 cells assessed as inhibition of cell viability incubated for 72 hrs by CCK-8 assay. The format is functional, cell-based. To be noted: for IC50: HL-60, 72 h.

Where a name gives a salt, the structure may show the parent alone. Active and inactive are the calls of the source. The rule behind the calls is not given here. Bounds are passed on as bounds.

One may read the inhibition as the relative decrease from the control value, in per cent. For `CC1C[C@H]2OC(=O)[C@]13CC[C@@H]1C[C@H](O)C[C@H](C)C4=C1[C@@H]3[C@@H]2C4=O` (stereo not given in full), the inhibition at 50 µM with A549 [1] and in the experiment on HL-60 [2] was under 50% in each case.
`CC1=C[C@@H](O)[C@H](O)[C@@]2(O)CC[C@]34C(=O)O[C@@H]5C(O[C@H]6C1=C2[C@@H]3[C@@H]56)C4C` (stereo not given in full): the inhibition at 50 µM in the experiment with A549 [1] and in the experiment with HL-60 [2] was under 50% throughout.
As to `CC1C(O)[C@H]2OC(=O)[C@]13CC[C@]14C[C@@H](O)[C@H](O1)[C@@](C)(O)C1=C4[C@@H]3[C@@H]2C1` (stereo not given in full), the inhibition at 50 µM in the experiment on A549 [1] and in the experiment on HL-60 [2] was under 50% throughout.
As for `CC1C[C@H]2OC(=O)[C@]13CC[C@@H]1CC(=O)C[C@H](C)C4=C1[C@@H]3[C@@H]2C4=O` (stereo not given in full), the inhibition at 50 µM in the experiment with A549 [1] and in the experiment with HL-60 [2] was under 50% throughout.
One may read the IC50 as the point on the concentration scale where inhibition reaches its midpoint. `COc1cccc2c1C(=O)c1c(O)c3c(c(O)c1C2=O)C[C@@](O)(C(=O)CO)C[C@@H]3O[C@H]1C[C@H](N)[C@H](O)[C@H](C)O1` [DOXORUBICIN HYDROCHLORIDE]: the results for the half-inhibitory concentration (IC50) with A549 [3] and in the experiment with HL-60 [4] were 0.44 µM and 0.075 µM, respectively.
On to `Cc1cc(=O)cc2c3c1C[C@@H]1[C@H]4CC(C)[C@@](CC2)(C(=O)O4)[C@]31O` (stereo not given in full), for which, in the experiment on A549 [3], the inhibition entry is “Active”. Also, in the experiment on HL-60 [4], the inhibition entry is “inactive”.
Turning to `Cc1cc(=O)cc2c3c1C[C@]1(O)[C@H]4CC(C)[C@@](CC2)(C(=O)O4)[C@]31O` (stereo not given in full), the figures for the IC50 in the experiment on A549 [3] and in the experiment on HL-60 [4] were 4.5 µM and 6.8 µM, respectively.
`Cc1cc(=O)cc2c3c1C[C@@H]1[C@H]4CC(C)[C@@](C=C2)(C(=O)O4)[C@]31O` (stereo not given in full): the 50% inhibitory concentration (IC50) is 5.7 µM in the experiment with A549 [3] and 10 to 20 µM in the experiment on HL-60 [4].
The corresponding values for `Cc1cc(=O)cc2c3c1[C@H](O)[C@H]1[C@@H]3[C@]3(CC2)C(=O)O[C@@H]1CC3C` (stereo not given in full) are 2.4 µM and 3.5 µM.
Take `CC1C[C@H]2OC(=O)[C@]13CC[C@@H]1CC(=O)C[C@H](C)C4=C1[C@]3(O)[C@@H]2C4=O` (stereo not given in full): the inhibition at 50 µM in the experiment with A549 [1] and with HL-60 [2] was under 50% each time.
`Cc1cc(=O)cc2c3c1C[C@H]1[C@@H]3[C@]3(C[C@H]2O)C(=O)O[C@@H]1CC3C` (stereo not given in full): the IC50 in the experiment with A549 [3] was 22 µM; in the experiment on HL-60 [4], over 50 µM.
The corresponding values for `Cc1cc(=O)cc2c3c1C[C@@H]1[C@@H]4OC(=O)[C@](C[C@H]2O)(C(C)C4O)[C@H]31` (stereo not given in full) are 25.4 µM and 38.4 µM.
On to `CC1C[C@H]2OC(=O)[C@]13CC[C@@H]1C[C@@H](O)C[C@H](C)C4=C1[C@@H]3[C@@H]2C4=O` (stereo not given in full), for which the inhibition at 50 µM with A549 [1] and in the experiment with HL-60 [2] was under 50% in each case.
As to `Cc1cc(=O)cc2c3c1[C@@H](O)[C@H]1[C@@H]3[C@]3(CC2)C(=O)O[C@@H]1CC3C` (stereo not given in full), the concentration for half-maximal inhibition (IC50) in the experiment on A549 [3] is 10.3 µM; with HL-60 [4], over 50 µM.
Take `Cc1cc(=O)cc2c3c1C[C@H]1[C@@H]3[C@]3(C=C2)C(=O)O[C@@H]1CC3C` (stereo not given in full): the half-maximal inhibitory concentration (IC50) with A549 [3] was 1 µM; in the experiment on HL-60 [4], 9.8 µM.
The corresponding values for `Cc1cc(=O)cc2c3c1[C@@H]1OC4C(C)[C@@]5(C[C@H]2O)C(=O)O[C@H]4[C@]1(O)[C@@H]35` (stereo not given in full) are 11.5 µM and 17.2 µM.
For the compound `CC1C(O)[C@H]2OC(=O)[C@]13CC[C@@H]1C[C@@H](O)C[C@H](C)C4=C1[C@]3(O)[C@@H]2C4=O` (stereo not given in full), the inhibition at 50 µM with A549 [1] and with HL-60 [2] was under 50% each time.
In the case of `Cc1cc(=O)cc2c3c1[C@@H](O)[C@@H]1[C@H]4CC(C)[C@@](C=C2)(C(=O)O4)[C@]31O` (stereo not given in full), the inhibition entry in the experiment with A549 [3] and in the experiment with HL-60 [4] was “inactive” in each case.
In the case of `Cc1cc(=O)cc2c3c1[C@H](O)[C@@H]1[C@@H]4OC(=O)[C@](CC2)(C(C)C4O)[C@H]31` (stereo not given in full), the results for the IC50 with A549 [3] and in the experiment with HL-60 [4] were 2.4 µM and 2.2 µM, respectively.
Consider `CO[C@@]12c3c4cc(=O)cc(C)c3C[C@@H]1[C@H]1CC(C)[C@@]2(CC4)C(=O)O1` (stereo not given in full), for which the inhibition entry in the experiment on A549 [3] and in the experiment with HL-60 [4] was “inactive” in each case.
